In patent publication US20090270350A1, “Pyridinone Pyrazole Urea and Pyrimidinone Pyrazole Urea Derivatives” (PFIZER INC., priority 2006, published 2009):

target: p38α (Homo sapiens, UniProt Q16539); test: p38α/MK2 cascade assay; assay type: biochemical; details: Table 1; inhibitors preincubated with p38α for 40 minutes; phosphorylation of Hsp27 peptide by MK-2, Caliper LabChip 3000; read-out: p38a/MK2 Cascade 40 min Pre-Incuabtion (% Inhibition): IC50
Method in brief: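 In a cascade format, p38α was preincubated 40 min with inhibitor (1000–0.05 nM) before adding 1 nM nonactive MK2 (54-400), 5 μM MgATP and 0.5 μM FITC-Hsp27 peptide. Reaction ran 60 min in HEPES pH 7.5 with MgCl2, DTT, 2% DMSO, then EDTA-quenched. Peptide phosphorylation was measured by Caliper mobility shift to give IC50.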

Chain of p38α (Q16539 whole entry): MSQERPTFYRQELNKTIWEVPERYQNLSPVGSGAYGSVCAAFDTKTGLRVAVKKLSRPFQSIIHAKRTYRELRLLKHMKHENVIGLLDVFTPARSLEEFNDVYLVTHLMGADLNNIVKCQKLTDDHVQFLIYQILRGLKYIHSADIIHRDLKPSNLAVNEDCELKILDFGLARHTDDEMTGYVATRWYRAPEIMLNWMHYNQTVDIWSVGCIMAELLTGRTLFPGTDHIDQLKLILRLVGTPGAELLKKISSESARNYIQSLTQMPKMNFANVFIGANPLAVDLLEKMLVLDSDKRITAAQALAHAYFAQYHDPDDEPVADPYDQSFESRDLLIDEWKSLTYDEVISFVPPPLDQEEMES

Row | SMILES | IC50 [nM]
1 | COc1cccc(Cn2c(C)cc(OCc3ccc(F)cc3CNC(=O)Nc3cc(C(C)(C)C)nn3-c3ccc(O)c(Cl)c3)c(Cl)c2=O)c1 [Example 46, 1-[3-tert-butyl-1-(3-chloro-4-hydroxyphenyl)-1H-pyrazol-5-yl]-3-[2-({[3-chloro-1-(3-methoxybenzyl)-6-methyl-2-oxo-1,2-dihydropyridin-4-yl]oxy}methyl)-5-fluorobenzyl]urea] | 4
2 | COc1cccc(-n2nc(C(C)(C)C)cc2NC(=O)NCc2ccccc2COc2cc(C)n(Cc3ccc(OC)cc3OC)c(=O)c2Br)c1 [Example 119, 1-[2-({[3-bromo-1-(2,4-dimethoxybenzyl)-6-methyl-2-oxo-1,2-dihydropyridin-4-yl]oxy}methyl)benzyl]-3-[3-tert-butyl-1-(3-methoxyphenyl)-1H-pyrazol-5-yl]urea] | 11.9
3 | COc1cc(Cn2c(C)cc(OCc3ccccc3CNC(=O)Nc3cc(C(C)(C)C)nn3-c3cccc(O)c3)c(Cl)c2=O)ccc1Cl [Example 81, 1-[3-tert-butyl-1-(3-hydroxyphenyl)-1H-pyrazol-5-yl]-3-[2-({[3-chloro-1-(4-chloro-3-methoxybenzyl)-6-methyl-2-oxo-1,2-dihydropyridin-4-yl]oxy}methyl)benzyl]urea] | 20.1
4 | COc1ccc(Cn2c(C)cc(OCc3ccccc3CNC(=O)Nc3cc(C(C)(C)C)nn3-c3ccc(O)cc3)cc2=O)cc1 [Example 54, 1-[3-tert-butyl-1-(4-hydroxyphenyl)-1H-pyrazol-5-yl]-3-[2-({[1-(4-methoxybenzyl)-6-methyl-2-oxo-1,2-dihydropyridin-4-yl]oxy}methyl)benzyl]urea] | 117
5 | COc1ccc(Cn2c(C)cc(OCc3ccccc3CNC(=O)Nc3cc(C(C)(C)C)nn3-c3cccc(F)c3)c(Br)c2=O)cc1 [Example 97, 1-[2-({[3-bromo-1-(4-methoxybenzyl)-6-methyl-2-oxo-1,2-dihydropyridin-4-yl]oxy}methyl)benzyl]-3-[3-tert-butyl-1-(3-fluorophenyl)-1H-pyrazol-5-yl]urea] | 3.9
6 | COc1cccc(Cn2c(C)cc(OCc3ccccc3CNC(=O)Nc3cc(C(C)(C)C)nn3-c3cccc(OCCO)c3)cc2=O)c1 [Example 38, 1-{3-tert-butyl-1-[3-(2-hydroxyethoxy)phenyl]-1H-pyrazol-5-yl}-3-[2-({[1-(3-methoxybenzyl)-6-methyl-2-oxo-1,2-dihydropyridin-4-yl]oxy}methyl)benzyl]urea] | 31.1
7 | COc1ccc(Cn2c(C)cc(OCc3ccccc3CNC(=O)Nc3cc(C(C)(C)C)nn3-c3ccc(F)cc3F)c(Br)c2=O)c(OC)c1 [Example 121, 1-[2-({[3-bromo-1-(2,4-dimethoxybenzyl)-6-methyl-2-oxo-1,2-dihydropyridin-4-yl]oxy}methyl)benzyl]-3-[3-tert-butyl-1-(2,4-difluorophenyl)-1H-pyrazol-5-yl]urea] | 11
8 | COc1cccc(Cn2c(C)cc(OCc3ccccc3CNC(=O)Nc3cc(C(C)(C)C)nn3-c3cccc(O)c3)c(Cl)c2=O)c1 [Example 52, 1-[3-tert-butyl-1-(3-hydroxyphenyl)-1H-pyrazol-5-yl]-3-[2-({[3-chloro-1-(3-methoxybenzyl)-6-methyl-2-oxo-1,2-dihydropyridin-4-yl]oxy}methyl)benzyl]urea] | 6.2
9 | COc1ccc(Cn2c(C)cc(OCc3ccccc3CNC(=O)Nc3cc(C(C)(C)C)nn3-c3cccc(F)c3)c(Br)c2=O)c(OC)c1 [Example 117, 1-[2-({[3-bromo-1-(2,4-dimethoxybenzyl)-6-methyl-2-oxo-1,2-dihydropyridin-4-yl]oxy}methyl)benzyl]-3-[3-tert-butyl-1-(3-fluorophenyl)-1H-pyrazol-5-yl]urea] | 15.7
10 | COc1ccc(Cn2c(C)cc(OCc3ccccc3CNC(=O)Nc3cc(C(C)(C)C)nn3-c3ccc(O)c(Cl)c3)cc2=O)cc1 [Example 56, 1-[3-tert-butyl-1-(3-chloro-4-hydroxyphenyl)-1H-pyrazol-5-yl]-3-[2-({[1-(4-methoxybenzyl)-6-methyl-2-oxo-1,2-dihydropyridin-4-yl]oxy}methyl)benzyl]urea] | 39.2
11 | COC(=O)c1ccc(C)c(-n2c(C)cc(OCc3ccc(F)cc3CNC(=O)Nc3cc(C(C)(C)C)nn3-c3cccc(Cl)c3)c(Cl)c2=O)c1 [Example 182, Methyl 3-{4-[(2-{[({[3-tert-butyl-1-(3-chlorophenyl)-1H-pyrazol-5-yl]amino}carbonyl)amino]methyl}-4-fluorobenzyl)oxy]-3-chloro-6-methyl-2-oxopyridin-1(2H)-yl}-4-methylbenzoate] | 3.99

same assay, conditions: Table 2; same p38α/MK2 cascade assay; 40 minutes preincubation; read-out: p38a/MK2 Cascade 40 min Pre-Incuabtion (% Inhibition): IC50

Row | SMILES | IC50 [nM]
12 | COc1ccc(Cn2c(C)cc(OCc3ccccc3CNC(=O)Nc3cc(C(C)(C)C)nn3-c3cccc(Cl)c3)c(Br)c2=O)c(OC)c1 [Example 242, 1-[2-({[3-bromo-1-(2,4-dimethoxybenzyl)-6-methyl-2-oxo-1,2-dihydropyridin-4-yl]oxy}methyl)benzyl]-3-[3-tert-butyl-1-(3-chlorophenyl)-1H-pyrazol-5-yl]urea] | 10.8
13 | COCCNC(=O)c1ccc(C)c(-n2c(C)cc(OCc3ccc(F)cc3CNC(=O)Nc3cc(C(C)(C)C)nn3-c3ccc(Cl)c(O)c3)c(Cl)c2=O)c1 [Example 235, 3-{4-[(2-{[({[3-tert-butyl-1-(4-chloro-3-hydroxyphenyl)-1H-pyrazol-5-yl]amino}carbonyl)amino]methyl}-4-fluorobenzyl)-oxy]-3-chloro-6-methyl-2-oxopyridin-1(2H)-yl}-N-(2-methoxy-ethyl)-4-methylbenzamide] | 4.2
14 | COc1cc(Cn2c(C)cc(OCc3ccccc3CNC(=O)Nc3cc(C(C)(C)C)nn3-c3ccc(O)cc3)c(Cl)c2=O)ccc1Cl [Example 258, 1-[3-tert-butyl-1-(4-hydroxyphenyl)-1H-pyrazol-5-yl]-3-[2-({[3-chloro-1-(4-chloro-3-methoxybenzyl)-6-methyl-2-oxo-1,2-dihydropyridin-4-yl]oxy}methyl)benzyl]urea] | 10.1
15 | COc1ccc(Cn2c(C)cc(OCc3ccccc3CNC(=O)Nc3cc(C(C)(C)C)nn3-c3cccc(O)c3)c(C)c2=O)cc1C#N [Example 252, 1-[3-tert-butyl-1-(3-hydroxyphenyl)-1H-pyrazol-5-yl]-3-[2-({[1-(3-cyano-4-methoxybenzyl)-3,6-dimethyl-2-oxo-1,2-dihydro-pyridin-4-yl]oxy}methyl)benzyl]urea] | 6
16 | COc1ccc(Cn2c(C)cc(OCc3ccccc3CNC(=O)Nc3cc(C(C)(C)C)nn3-c3ccc(F)cc3F)c(C)c2=O)c(OC)c1 [Example 244, 1-[3-tert-butyl-1-(2,4-difluorophenyl)-1H-pyrazol-5-yl]-3-[2-({[1-(2,4-dimethoxybenzyl)-3,6-dimethyl-2-oxo-1,2-dihydropyridin-4-yl]oxy}methyl)benzyl]urea] | 13.7
17 | Cc1ccc(C(=O)NCCO)cc1-n1c(C)cc(OCc2ccccc2CNC(=O)Nc2cc(C(C)(C)C)nn2-c2ccc(Cl)c(O)c2)c(Cl)c1=O [Example 228, 3-{4-[(2-{[({[3-tert-butyl-1-(4-chloro-3-hydroxyphenyl)-1H-pyrazol-5-yl]amino}carbonyl)amino]methyl}benzyl)oxy]-3-chloro-6-methyl-2-oxopyridin-1(2H)-yl}-N-(2-hydroxyethyl)-4-methylbenzamide] | 2.1
18 | COc1ccccc1Cn1c(C)cc(OCc2ccccc2CNC(=O)Nc2cc(C(C)(C)C)nn2-c2ccc(Cl)c(O)c2)c(C)c1=O [Example 275, 1-[3-tert-butyl-1-(4-chloro-3-hydroxyphenyl)-1H-pyrazol-5-yl]-3-[2-({[1-(2-methoxybenzyl)-3,6-dimethyl-2-oxo-1,2-dihydropyridin-4-yl]oxy}methyl)benzyl]urea] | 53.7
19 | COc1ccc(Cn2c(C)cc(OCc3ccccc3CNC(=O)Nc3cc(C(C)(C)C)nn3-c3ccccc3)c(C)c2=O)cc1 [Example 237, 1-(3-tert-butyl-1-phenyl-1H-pyrazol-5-yl)-3-[2-({[1-(4-methoxybenzyl)-3,6-dimethyl-2-oxo-1,2-dihydropyridin-4-yl]oxy}methyl)benzyl]urea] | 11.2
20 | COC(=O)c1ccc(C)c(-n2c(C)cc(OCc3ccccc3CNC(=O)Nc3cc(C(C)(C)C)nn3-c3ccc(C)cc3)c(Cl)c2=O)c1 [Example 205, methyl 3-{4-[(2-{[({[3-tert-butyl-1-(4-methylphenyl)-1H-pyrazol-5-yl]amino}carbonyl)-amino]methyl}benzyl)oxy]-3-chloro-6-methyl-2-oxopyridin-1(2H)-yl}-4-methylbenzoate] | 2.5
21 | COc1ccc(Cn2c(C)cc(OCc3ccccc3CNC(=O)Nc3cc(C(C)(C)C)nn3-c3ccc(Cl)c(O)c3)c(C)c2=O)cc1C#N [Example 251, 1-[3-tert-butyl-1-(4-chloro-3-hydroxyphenyl)-1H-pyrazol-5-yl]-3-[2-({[1-(3-cyano-4-methoxybenzyl)-3,6-dimethyl-2-oxo-1,2-dihydropyridin-4-yl]oxy}methyl)benzyl]urea] | 8.4
22 | Cc1ccc(C(=O)NCC(O)CO)cc1-n1c(C)cc(OCc2ccccc2CNC(=O)Nc2cc(C(C)(C)C)nn2-c2ccc(O)cc2)c(Cl)c1=O (centres unmarked) [Example 217, 3-{4-[(2-{[({[3-tert-butyl-1-(4-hydroxyphenyl)-1H-pyrazol-5-yl]amino}carbonyl)amino]methyl}benzyl)oxy]-3-chloro-6-methyl-2-oxopyridin-1(2H)-yl}-N-(2,3-dihydroxypropyl)-4-methylbenzamide] | 1.5
23 | COCCNC(=O)c1ccc(C)c(-n2c(C)cc(OCc3ccccc3CNC(=O)Nc3cc(C(C)(C)C)nn3-c3ccc(O)c(Cl)c3)c(Cl)c2=O)c1 [Example 225, 3-{4-[(2-{[({[3-tert-butyl-1-(3-chloro-4-hydroxyphenyl)-1H-pyrazol-5-yl]amino}carbonyl)amino]methyl}benzyl)oxy]-3-chloro-6-methyl-2-oxopyridin-1(2H)-yl}-N-(2-methoxyethyl)-4-methylbenzamide] | 3.03
